Measured values published in US20100292231A1, “Indazole Compounds for Treating Inflammatory Disorders, Demyelinating Disorders and Cancers” (priority 2007, published 2010).
Like-named read-outs stand apart in the source and are kept apart here.

Columns and labels:
Assay in all cases: SelectScreen kinase specificity survey
Format in all cases: biochemical
MAPK14 (p38 alpha) = molecular target: T1, MAPK14 (p38 alpha) (Homo sapiens, UniProt Q16539); conditions: estimated, abridged dose response curve, read-out: Kinase inhibitory activity EC50
T1 construct: purchased Invitrogen, Inc. (SelectScreen service)

AKT3 (PKB gamma) = molecular target: T2, AKT3 (PKB gamma) (Homo sapiens, UniProt Q9Y243); conditions: estimated, abridged dose response curve, read-out: Kinase inhibitory activity EC50
T2 construct: purchased Invitrogen (SelectScreen platform)
Procedure, shortened: (§1)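 With 100 micromolar ATP present, substrate phosphorylation by each panel kinase was tracked optically against an uninhibited baseline. Graded inhibitor, added in 5 steps, produced a sigmoid curve, and a Hill equation with four parameters was fitted to it to give an estimated EC50.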

ZAP70 = molecular target: T3, ZAP70 (Homo sapiens, UniProt P43403); conditions: estimated, abridged dose response curve, read-out: Kinase inhibitory activity EC50
T3 construct: purchased Invitrogen (SelectScreen)
Procedure, shortened: as §1

DCAMKL2 (DCK2) = molecular target: T4, DCAMKL2 (DCK2) (Homo sapiens, UniProt Q8N568); conditions: estimated, abridged dose response curve, read-out: Kinase inhibitory activity EC50
T4 construct: purchased Invitrogen, Inc. (SelectScreen platform)
Procedure, shortened: as §1

NTRK1 (TRKA) = molecular target: T5, NTRK1 (TRKA) (Homo sapiens, UniProt P04629)
T5 construct: purchased Invitrogen (SelectScreen)
Procedure, shortened: as §1

MAPKAPK5 (PRAK) = molecular target: T6, MAPKAPK5 (PRAK) (Homo sapiens, UniProt Q8IW41); conditions: estimated, abridged dose response curve, read-out: Kinase inhibitory activity EC50
T6 construct: purchased Invitrogen, Inc. (SelectScreen platform)
Procedure, shortened: as §1

CSNK1E (CK1 epsilon) = molecular target: T7, CSNK1E (CK1 epsilon) (Homo sapiens, UniProt P49674); conditions: estimated, abridged dose response curve, read-out: Kinase inhibitory activity EC50
T7 construct: purchased Invitrogen (SelectScreen platform)
Procedure, shortened: as §1

EGFR (ErbB1) L858R = molecular target: T8, EGFR (ErbB1) L858R (Homo sapiens, UniProt P00533, L858R); conditions: estimated, abridged dose response curve, read-out: Kinase inhibitory activity EC50
T8 construct: purchased Invitrogen (SelectScreen service)
Procedure, shortened: as §1

MAPKAPK3 = molecular target: T9, MAPKAPK3 (Homo sapiens, UniProt Q16644); conditions: estimated, abridged dose response curve, read-out: Kinase inhibitory activity EC50
T9 construct: purchased Invitrogen, Inc. (SelectScreen platform)
Procedure, shortened: as §1

PRKCE (PKC epsilon) = molecular target: T10, PRKCE (PKC epsilon) (Homo sapiens, UniProt Q02156); conditions: estimated, abridged dose response curve, read-out: Kinase inhibitory activity EC50
T10 construct: purchased Invitrogen, Inc. (SelectScreen platform)
Procedure, shortened: as §1

PTK2B (FAK2, PYK2) = molecular target: T11, PTK2B (FAK2, PYK2) (Homo sapiens, UniProt Q14289); conditions: estimated, abridged dose response curve, read-out: Kinase inhibitory activity EC50
T11 construct: purchased Invitrogen (SelectScreen service)
Procedure, shortened: as §1

PRKX = molecular target: T12, PRKX (Homo sapiens, UniProt P51817); conditions: estimated, abridged dose response curve, read-out: Kinase inhibitory activity EC50
T12 construct: purchased Invitrogen (SelectScreen platform)
Procedure, shortened: as §1

TAOK2 (TAO1) = molecular target: T13, TAOK2 (TAO1) (Homo sapiens, UniProt Q9UL54); conditions: estimated, abridged dose response curve, read-out: Kinase inhibitory activity EC50
T13 construct: purchased Invitrogen (SelectScreen platform)
Procedure, shortened: as §1

CAMK2D (CaMKII delta) = molecular target: T14, CAMK2D (CaMKII delta) (Homo sapiens, UniProt Q13557); conditions: estimated, abridged dose response curve, read-out: Kinase inhibitory activity EC50
T14 construct: purchased Invitrogen, Inc. (SelectScreen platform)
Procedure, shortened: as §1

EPHA4 = molecular target: T15, EPHA4 (Homo sapiens, UniProt P54764); conditions: estimated, abridged dose response curve, read-out: Kinase inhibitory activity EC50
T15 construct: purchased Invitrogen (SelectScreen service)
Procedure, shortened: as §1

LCK = molecular target: T16, LCK (Homo sapiens, UniProt P06239); conditions: estimated, abridged dose response curve, read-out: Kinase inhibitory activity EC50
T16 construct: purchased Invitrogen (SelectScreen)
Procedure, shortened: as §1

PIM2 = molecular target: T17, PIM2 (Homo sapiens, UniProt Q9P1W9); conditions: estimated, abridged dose response curve, read-out: Kinase inhibitory activity EC50
T17 construct: purchased Invitrogen, Inc. (SelectScreen platform)
Procedure, shortened: as §1

DYRK3 = molecular target: T18, DYRK3 (Homo sapiens, UniProt O43781); conditions: estimated, abridged dose response curve, read-out: Kinase inhibitory activity EC50
T18 construct: purchased Invitrogen (SelectScreen platform)
Procedure, shortened: as §1

RPS6KA3 (RSK2) = molecular target: T19, RPS6KA3 (RSK2) (Homo sapiens, UniProt P51812); conditions: estimated, abridged dose response curve, read-out: Kinase inhibitory activity EC50
T19 construct: purchased Invitrogen, Inc. (SelectScreen platform)
Procedure, shortened: as §1

PDGFRB (PDGFR beta) = molecular target: T20, PDGFRB (PDGFR beta) (Homo sapiens, UniProt P09619); conditions: estimated, abridged dose response curve, read-out: Kinase inhibitory activity EC50
T20 construct: purchased Invitrogen (SelectScreen platform)
Procedure, shortened: as §1

SYK = molecular target: T21, SYK (Homo sapiens, UniProt P43405); conditions: estimated, abridged dose response curve, read-out: Kinase inhibitory activity EC50
T21 construct: purchased Invitrogen (SelectScreen)
Procedure, shortened: as §1

CSK = molecular target: T22, CSK (Homo sapiens, UniProt P41240); conditions: estimated, abridged dose response curve, read-out: Kinase inhibitory activity EC50
T22 construct: purchased Invitrogen (SelectScreen service)
Procedure, shortened: as §1

MAPKAPK2 = molecular target: T23, MAPKAPK2 (Homo sapiens, UniProt P49137); conditions: estimated, abridged dose response curve, read-out: Kinase inhibitory activity EC50
T23 construct: purchased Invitrogen, Inc. (SelectScreen platform)
Procedure, shortened: as §1

PRKCB2 (PKC beta II) = molecular target: T24, PRKCB2 (PKC beta II) (Homo sapiens, UniProt P05771); conditions: estimated, abridged dose response curve, read-out: Kinase inhibitory activity EC50
T24 construct: purchased Invitrogen (SelectScreen platform)
Procedure, shortened: as §1

AXL = molecular target: T25, AXL (Homo sapiens, UniProt P30530); conditions: estimated, abridged dose response curve, read-out: Kinase inhibitory activity EC50
T25 construct: purchased Invitrogen (SelectScreen service)
Procedure, shortened: as §1

PAK2 (PAK65) = molecular target: T26, PAK2 (PAK65) (Homo sapiens, UniProt Q13177); conditions: estimated, abridged dose response curve, read-out: Kinase inhibitory activity EC50
T26 construct: purchased Invitrogen (SelectScreen platform)
Procedure, shortened: as §1

YES1 (YES) = molecular target: T27, YES1 (YES) (Homo sapiens, UniProt P07947); conditions: estimated, abridged dose response curve, read-out: Kinase inhibitory activity EC50
T27 construct: purchased Invitrogen (SelectScreen)
Procedure, shortened: as §1

T10 sequence (Q02156 whole entry): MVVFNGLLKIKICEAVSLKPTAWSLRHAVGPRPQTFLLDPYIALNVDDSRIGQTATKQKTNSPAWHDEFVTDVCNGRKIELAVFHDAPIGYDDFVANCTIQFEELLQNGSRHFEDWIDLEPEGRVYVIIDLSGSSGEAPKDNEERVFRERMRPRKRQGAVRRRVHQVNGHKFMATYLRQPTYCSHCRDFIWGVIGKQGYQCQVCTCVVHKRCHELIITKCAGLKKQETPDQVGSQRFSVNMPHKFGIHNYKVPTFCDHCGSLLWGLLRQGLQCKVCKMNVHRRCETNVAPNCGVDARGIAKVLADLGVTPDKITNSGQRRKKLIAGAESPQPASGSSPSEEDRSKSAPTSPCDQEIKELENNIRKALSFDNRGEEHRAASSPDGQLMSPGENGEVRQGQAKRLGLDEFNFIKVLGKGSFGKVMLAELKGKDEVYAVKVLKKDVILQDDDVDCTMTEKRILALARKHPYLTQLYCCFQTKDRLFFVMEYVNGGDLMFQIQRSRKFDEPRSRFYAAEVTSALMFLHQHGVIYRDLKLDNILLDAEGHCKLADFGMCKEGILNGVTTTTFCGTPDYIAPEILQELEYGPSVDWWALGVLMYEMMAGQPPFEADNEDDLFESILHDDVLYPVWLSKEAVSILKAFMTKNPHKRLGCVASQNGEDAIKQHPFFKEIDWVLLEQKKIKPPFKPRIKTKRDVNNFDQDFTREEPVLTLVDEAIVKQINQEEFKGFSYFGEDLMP
T22 sequence (P41240 whole entry): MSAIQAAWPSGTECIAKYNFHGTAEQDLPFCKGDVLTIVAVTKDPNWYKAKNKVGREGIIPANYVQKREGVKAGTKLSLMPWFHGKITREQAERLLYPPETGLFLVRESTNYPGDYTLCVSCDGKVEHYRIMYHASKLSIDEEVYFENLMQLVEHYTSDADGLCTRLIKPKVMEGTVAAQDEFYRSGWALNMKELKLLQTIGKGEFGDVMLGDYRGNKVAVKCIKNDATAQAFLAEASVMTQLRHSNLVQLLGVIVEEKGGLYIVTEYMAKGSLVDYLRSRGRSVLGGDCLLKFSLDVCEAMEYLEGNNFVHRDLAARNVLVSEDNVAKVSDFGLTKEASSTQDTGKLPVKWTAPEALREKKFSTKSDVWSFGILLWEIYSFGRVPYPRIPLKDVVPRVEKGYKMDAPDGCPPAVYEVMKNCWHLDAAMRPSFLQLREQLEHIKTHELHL
T24 sequence (P05771 1-673 isoform P05771-2): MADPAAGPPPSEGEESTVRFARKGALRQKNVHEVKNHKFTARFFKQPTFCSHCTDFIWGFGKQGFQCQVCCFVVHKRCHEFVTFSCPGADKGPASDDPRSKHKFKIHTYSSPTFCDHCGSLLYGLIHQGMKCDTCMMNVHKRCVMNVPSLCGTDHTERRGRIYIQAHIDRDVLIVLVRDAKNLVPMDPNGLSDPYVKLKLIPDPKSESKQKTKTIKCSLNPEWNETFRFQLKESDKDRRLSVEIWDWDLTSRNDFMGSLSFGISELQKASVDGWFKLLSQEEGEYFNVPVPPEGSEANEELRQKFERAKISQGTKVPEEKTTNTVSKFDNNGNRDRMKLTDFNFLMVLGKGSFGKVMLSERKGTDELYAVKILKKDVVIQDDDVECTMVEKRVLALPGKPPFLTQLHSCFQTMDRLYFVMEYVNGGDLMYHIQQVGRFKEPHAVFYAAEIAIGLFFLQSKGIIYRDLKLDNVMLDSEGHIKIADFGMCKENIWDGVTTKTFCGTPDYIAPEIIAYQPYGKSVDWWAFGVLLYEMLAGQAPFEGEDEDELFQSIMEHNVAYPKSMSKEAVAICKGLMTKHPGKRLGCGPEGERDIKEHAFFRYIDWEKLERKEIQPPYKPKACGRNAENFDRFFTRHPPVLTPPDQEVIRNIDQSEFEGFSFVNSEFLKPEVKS
T13 sequence (Q9UL54 whole entry): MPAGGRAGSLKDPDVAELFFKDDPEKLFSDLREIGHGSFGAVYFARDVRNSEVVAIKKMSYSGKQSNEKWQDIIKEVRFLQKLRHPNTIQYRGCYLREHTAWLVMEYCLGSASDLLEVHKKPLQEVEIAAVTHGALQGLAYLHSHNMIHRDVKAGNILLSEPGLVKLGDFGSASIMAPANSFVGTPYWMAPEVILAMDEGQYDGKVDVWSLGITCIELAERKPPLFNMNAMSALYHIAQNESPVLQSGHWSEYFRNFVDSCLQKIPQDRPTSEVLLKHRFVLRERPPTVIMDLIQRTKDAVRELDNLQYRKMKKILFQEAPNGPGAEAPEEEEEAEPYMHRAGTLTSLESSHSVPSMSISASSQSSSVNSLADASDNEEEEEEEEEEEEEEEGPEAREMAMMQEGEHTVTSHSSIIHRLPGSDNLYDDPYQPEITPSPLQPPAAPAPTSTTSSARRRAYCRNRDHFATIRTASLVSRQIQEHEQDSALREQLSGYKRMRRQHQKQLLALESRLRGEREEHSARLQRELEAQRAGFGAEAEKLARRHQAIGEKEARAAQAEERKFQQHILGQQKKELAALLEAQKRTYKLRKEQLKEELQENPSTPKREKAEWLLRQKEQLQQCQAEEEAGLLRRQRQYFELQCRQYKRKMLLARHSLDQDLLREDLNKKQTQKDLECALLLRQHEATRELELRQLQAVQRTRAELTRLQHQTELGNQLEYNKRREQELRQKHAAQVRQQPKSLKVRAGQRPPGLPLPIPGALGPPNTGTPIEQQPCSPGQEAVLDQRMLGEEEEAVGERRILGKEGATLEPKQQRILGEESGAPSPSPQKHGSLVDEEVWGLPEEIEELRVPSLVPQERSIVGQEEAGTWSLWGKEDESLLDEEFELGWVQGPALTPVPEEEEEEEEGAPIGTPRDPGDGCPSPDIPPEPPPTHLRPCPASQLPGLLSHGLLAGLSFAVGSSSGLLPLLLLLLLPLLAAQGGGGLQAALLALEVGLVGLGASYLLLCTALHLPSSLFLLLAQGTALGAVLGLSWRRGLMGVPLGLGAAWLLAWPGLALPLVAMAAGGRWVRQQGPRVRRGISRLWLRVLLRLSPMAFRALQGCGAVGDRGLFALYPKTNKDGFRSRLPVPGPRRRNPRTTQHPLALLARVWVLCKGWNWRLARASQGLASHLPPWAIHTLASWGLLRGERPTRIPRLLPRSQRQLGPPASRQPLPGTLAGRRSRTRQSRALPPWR
T3 sequence (P43403 whole entry): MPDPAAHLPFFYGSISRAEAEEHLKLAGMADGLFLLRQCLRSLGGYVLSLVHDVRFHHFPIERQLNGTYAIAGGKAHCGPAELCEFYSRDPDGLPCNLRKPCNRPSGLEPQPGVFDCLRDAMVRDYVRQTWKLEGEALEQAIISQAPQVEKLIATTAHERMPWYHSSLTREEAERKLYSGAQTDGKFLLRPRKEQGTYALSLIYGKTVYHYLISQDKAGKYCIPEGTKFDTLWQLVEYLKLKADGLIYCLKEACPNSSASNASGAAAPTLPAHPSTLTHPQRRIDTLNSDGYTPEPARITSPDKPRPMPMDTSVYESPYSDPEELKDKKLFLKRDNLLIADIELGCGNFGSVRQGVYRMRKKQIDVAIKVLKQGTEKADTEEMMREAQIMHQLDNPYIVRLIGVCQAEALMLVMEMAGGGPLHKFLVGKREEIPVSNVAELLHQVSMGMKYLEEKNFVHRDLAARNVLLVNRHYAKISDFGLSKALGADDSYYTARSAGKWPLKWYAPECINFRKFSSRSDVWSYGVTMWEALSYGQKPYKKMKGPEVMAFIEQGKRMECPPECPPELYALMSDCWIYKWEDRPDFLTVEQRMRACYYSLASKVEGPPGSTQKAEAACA
T9 sequence (Q16644 whole entry): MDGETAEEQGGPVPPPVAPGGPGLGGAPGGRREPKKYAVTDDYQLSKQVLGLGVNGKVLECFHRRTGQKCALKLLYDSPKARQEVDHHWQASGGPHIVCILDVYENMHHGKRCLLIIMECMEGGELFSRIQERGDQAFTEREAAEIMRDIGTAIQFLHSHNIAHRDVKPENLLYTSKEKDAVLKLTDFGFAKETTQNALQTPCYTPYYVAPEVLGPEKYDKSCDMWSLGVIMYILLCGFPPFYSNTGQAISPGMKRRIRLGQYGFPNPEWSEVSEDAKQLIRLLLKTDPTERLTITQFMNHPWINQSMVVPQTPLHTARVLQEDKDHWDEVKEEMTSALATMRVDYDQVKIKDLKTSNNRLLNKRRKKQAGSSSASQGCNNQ
T26 sequence (Q13177 whole entry): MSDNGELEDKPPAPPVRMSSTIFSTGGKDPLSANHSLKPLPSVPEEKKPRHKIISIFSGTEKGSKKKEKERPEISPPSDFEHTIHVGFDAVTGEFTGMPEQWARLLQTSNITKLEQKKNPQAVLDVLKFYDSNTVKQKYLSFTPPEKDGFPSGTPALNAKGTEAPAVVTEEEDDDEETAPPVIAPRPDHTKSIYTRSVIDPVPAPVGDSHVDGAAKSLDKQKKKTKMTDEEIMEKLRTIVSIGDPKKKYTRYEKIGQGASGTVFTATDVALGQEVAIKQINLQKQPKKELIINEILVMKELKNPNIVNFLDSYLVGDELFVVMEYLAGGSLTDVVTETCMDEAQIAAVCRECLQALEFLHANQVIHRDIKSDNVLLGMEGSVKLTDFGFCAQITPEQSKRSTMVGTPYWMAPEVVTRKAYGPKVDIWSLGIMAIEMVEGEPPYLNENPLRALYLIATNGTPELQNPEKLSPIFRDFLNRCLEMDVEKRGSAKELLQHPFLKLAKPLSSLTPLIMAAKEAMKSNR
T12 sequence (P51817 whole entry): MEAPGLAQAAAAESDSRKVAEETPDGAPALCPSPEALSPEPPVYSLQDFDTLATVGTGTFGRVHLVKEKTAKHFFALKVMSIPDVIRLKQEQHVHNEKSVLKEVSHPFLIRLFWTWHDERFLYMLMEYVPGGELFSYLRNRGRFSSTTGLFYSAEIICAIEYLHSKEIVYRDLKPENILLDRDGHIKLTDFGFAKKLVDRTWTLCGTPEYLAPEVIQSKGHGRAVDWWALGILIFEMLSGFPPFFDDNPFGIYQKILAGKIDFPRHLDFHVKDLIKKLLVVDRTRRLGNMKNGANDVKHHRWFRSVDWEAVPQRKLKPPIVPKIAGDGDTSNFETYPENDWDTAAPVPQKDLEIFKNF

SMILES | EC50 (MAPK14 (p38 alpha)) [µM] | EC50 (AKT3 (PKB gamma)) [µM] | EC50 (ZAP70) [µM] | EC50 (DCAMKL2 (DCK2)) [µM] | EC50 (MAPKAPK5 (PRAK)) [µM] | EC50 (CSNK1E (CK1 epsilon)) [µM] | EC50 (EGFR (ErbB1) L858R) [µM] | EC50 (MAPKAPK3) [µM] | EC50 (PRKCE (PKC epsilon)) [µM] | EC50 (PTK2B (FAK2, PYK2)) [µM] | EC50 (PRKX) [µM] | EC50 (TAOK2 (TAO1)) [µM] | EC50 (CAMK2D (CaMKII delta)) [µM] | EC50 (EPHA4) [µM] | EC50 (LCK) [µM] | EC50 (PIM2) [µM] | EC50 (DYRK3) [µM] | EC50 (RPS6KA3 (RSK2)) [µM] | EC50 (PDGFRB (PDGFR beta)) [µM] | EC50 (SYK) [µM] | other results
CN(C)CCCNc1ccc2ncn3c4ccc5[nH]ncc5c4c(=O)c1c23 [Compound (IV)] | 3.79 | > 5 | > 5 | > 5 | > 5 | > 5 | > 5 | > 5 | 2.52 | > 5 | 1.4 | > 5 | 0.218 | > 5 | 0.345 | > 5 | 0.38 | 1.49 | 0.278 | > 5 | EC50 (NTRK1 (TRKA); NTRK1 (TRKA), estimated, abridged dose response curve, read-out: Kinase inhibitory activity EC50): 0.438 µM; EC50 (CSK): > 5 µM; EC50 (MAPKAPK2): > 5 µM; EC50 (PRKCB2 (PKC beta II)): > 5 µM; EC50 (AXL): 4.44 µM; EC50 (PAK2 (PAK65)): > 5 µM; EC50 (YES1 (YES)): 1.57 µM
CCN(CC)CCNc1ccc2ncn3c4ccc(O)cc4c(=O)c1c23 [Symadex, 5-(2-(diethylamino)ethylamino)-8-hydroxy-6H-imidazo[4,5,1-de]acridin-6-one, reference compound] | 2.97 | > 5 | > 5 | > 5 | > 5 | 1.09 | > 5 | > 5 | > 5 | > 5 | 3.56 | > 5 | 2.06 | > 5 | 0.824 | > 5 | 0.611 | 0.692 | 1.79 | 3.91 | EC50 (NTRK1 (TRKA)): 1.43 µM; EC50 (CSK): > 5 µM; EC50 (MAPKAPK2): > 5 µM; EC50 (PRKCB2 (PKC beta II)): > 5 µM; EC50 (AXL): 3.77 µM; EC50 (PAK2 (PAK65)): > 5 µM; EC50 (YES1 (YES)): > 5 µM
